Experiments:
Assay type in all cases: in vivo
[1] = system: VERPE: Veronica persica; assay: Post-emergence herbicidal efficacy at 1280 g/ha, VERPE; conditions: visual rating about 3 weeks after treatment vs untreated controls
Method: (§1) Seeds of mono- and dicotyledonous weed plants were placed in plastic pots in sandy loam soil (doubly sown with in each case one species of mono- or dicotyledonous weed plants per pot), covered with soil and cultivated in a greenhouse under controlled growth conditions. 2 to 3 weeks after sowing, the test plants were treated at the one-leaf stage. The compounds of the invention, formulated in the form of wettable powders (WP) or as emulsion concentrates (EC), were applied to the green parts of the plants as aqueous suspension or emulsion with addition of 0.5% additive at a water application rate equivalent to 600 litres per hectare. After the test plants had been kept in the greenhouse under optimum growth conditions for about 3 weeks, the activity of the preparations was rated visually in comparison to untreated controls. For example, 100% activity=the plants have died, 0% activity=like control plants. Tables A1 to A12 below show the effects of selected compounds of the general formula (I) according to Table 1 on various harmful plants and at an application rate corresponding to 1280 g/ha, which were obtained by the trial procedure specified above.

[2] = system: AMARE: Amaranthus retroflexus; assay: Pre-emergence herbicide efficacy at 1280 g/ha, AMARE; conditions: visual scoring after about 3 weeks vs untreated controls
Description: (§2) Seeds of mono- and dicotyledonous weed plants were placed in plastic pots in sandy loam soil (doubly sown with one species each of mono- or dicotyledonous weed plants per pot) and covered with soil. The compounds of the invention, formulated in the form of wettable powders (WP) or as emulsion concentrates (EC), were then applied to the surface of the covering soil as aqueous suspension or emulsion with addition of 0.5% additive at a water application rate of 600 litres per hectare (converted). After the treatment, the pots were placed in a greenhouse and kept under good growth conditions for the test plants. After about 3 weeks, the efficacy of the preparations was scored visually in comparison with untreated controls as percentages. For example, 100% activity=the plants have died, 0% activity=like control plants. Tables C1 to C12 below show the effects of selected compounds of the general formula (I) according to Table 1 on various harmful plants and at an application rate corresponding to 1280 g/ha, which were obtained by the trial procedure specified above.

[3] = system: AMARE: Amaranthus retroflexus; assay: Post-emergence herbicidal efficacy at 1280 g/ha, AMARE; conditions: rated visually after about 3 weeks vs untreated controls, 100% = plants have died, 0% = like control plants
Method: as §1

[4] = system: POAAN: Poa annua; assay: Pre-emergence herbicide efficacy at 1280 g/ha, POAAN; conditions: visual scoring after about 3 weeks vs untreated controls
Description: as §2

[5] = system: STEME: Stellaria media; assay: Pre-emergence herbicide efficacy at 1280 g/ha, STEME; conditions: visual scoring vs untreated controls
Description: as §2

[6] = system: ABUTH: Abutilon theophrasti; assay: Pre-emergence herbicide efficacy at 1280 g/ha, ABUTH; conditions: visual scoring after about 3 weeks vs untreated controls
Description: as §2

[7] = system: STEME: Stellaria media; assay: Post-emergence herbicidal efficacy at 1280 g/ha, STEME; conditions: visual rating about 3 weeks after treatment vs untreated controls
Method: as §1

[8] = system: ABUTH: Abutilon theophrasti; assay: Post-emergence herbicidal efficacy at 1280 g/ha, ABUTH; conditions: rated visually after about 3 weeks vs untreated controls, 100% = plants have died, 0% = like control plants
Method: as §1

[9] = system: POAAN: Poa annua; assay: Post-emergence herbicidal efficacy at 1280 g/ha, POAAN; conditions: visual rating about 3 weeks after treatment vs untreated controls
Method: as §1

[10] = system: KCHSC: Kochia scoparia; assay: Post-emergence herbicidal efficacy at 1280 g/ha, KCHSC; conditions: visual rating about 3 weeks after treatment vs untreated controls
Method: as §1

[11] = system: ECHCG: Echinochloa crus-galli; assay: Pre-emergence herbicide efficacy at 1280 g/ha, ECHCG; conditions: visual scoring after about 3 weeks vs untreated controls
Description: as §2

[12] = system: DIGSA: Digitaria sanguinalis; assay: Pre-emergence herbicide efficacy at 1280 g/ha, DIGSA; conditions: visual scoring after about 3 weeks vs untreated controls
Description: as §2

[13] = system: SETVI: Setaria viridis; assay: Pre-emergence herbicide efficacy at 1280 g/ha, SETVI; conditions: visual scoring vs untreated controls
Description: as §2

## N#CC(c1ccc(Cl)cn1)c1ccccc1-c1ccc(F)c(F)c1 (stereo not shown) [Example 1-80]
[1]
  Post-emergence efficacy against VERPE: 90%
[2]
  Pre-emergence efficacy against AMARE: 100%
[3]
  Post-emergence efficacy at 1280 g/ha against AMARE in %: 100%
[4]
  Pre-emergence efficacy against POAAN: 90%
[5]
  Pre-emergence efficacy against STEME in %: 100%
[6]
  Pre-emergence efficacy against ABUTH: 90%
[7]
  Post-emergence efficacy against STEME: 90%

## Fc1ccc(-c2ccccc2Cc2ccc(Cl)cn2)cc1F [Example 1-97]
[8]
  Post-emergence efficacy at 1280 g/ha against ABUTH in %: 100%
[1]
  Post-emergence efficacy against VERPE: 100%
[2]
  Pre-emergence efficacy against AMARE: 100%
[3]
  Post-emergence efficacy at 1280 g/ha against AMARE in %: 100%
[9]
  Post-emergence efficacy against POAAN: 100%
[10]
  Post-emergence efficacy against KCHSC: 100%
[7]
  Post-emergence efficacy against STEME: 90%

## N#CC(c1ncc(Cl)cn1)c1ccccc1Cc1ccc(F)cc1 (stereo not shown) [Example 1-69]
[1]
  Post-emergence efficacy against VERPE: 100%
[3]
  Post-emergence efficacy at 1280 g/ha against AMARE in %: 90%
[6]
  Pre-emergence efficacy against ABUTH: 100%
[10]
  Post-emergence efficacy against KCHSC: 90%
[7]
  Post-emergence efficacy against STEME: 90%

## N#CC(c1ccc(Cl)cn1)c1ccccc1CCCC(F)(F)F (stereo not shown) [Example 1-73]
[1]
  Post-emergence efficacy against VERPE: 90%
[2]
  Pre-emergence efficacy against AMARE: 90%
[3]
  Post-emergence efficacy at 1280 g/ha against AMARE in %: 90%

## FC(F)(F)CCCOc1ccccc1Cc1ncc(Cl)cn1 [Example 1-8]
[1]
  Post-emergence efficacy against VERPE: 100%
[2]
  Pre-emergence efficacy against AMARE: 100%
[11]
  Pre-emergence efficacy against ECHCG: 90%
[5]
  Pre-emergence efficacy against STEME in %: 90%
[12]
  Pre-emergence efficacy against DIGSA: 100%
[13]
  Pre-emergence efficacy against SETVI in %: 90%
[7]
  Post-emergence efficacy against STEME: 90%

## Fc1cnc(Cc2ccccc2CCCC(F)(F)F)nc1 [Example 1-3]
[8]
  Post-emergence efficacy at 1280 g/ha against ABUTH in %: 90%
[1]
  Post-emergence efficacy against VERPE: 90%
[3]
  Post-emergence efficacy at 1280 g/ha against AMARE in %: 90%
[9]
  Post-emergence efficacy against POAAN: 100%
[10]
  Post-emergence efficacy against KCHSC: 90%
[7]
  Post-emergence efficacy against STEME: 90%

## N#CC(c1ncc(F)cn1)c1ccccc1CCCC(F)(F)F (stereo not shown) [Example 1-72]
[4]
  Pre-emergence efficacy against POAAN: 90%

## Cc1cc(C)c(-c2cc(C(F)F)no2)c(C(C#N)c2ncc(Cl)cn2)n1 (stereo not shown) [Example 2-6]
[2]
  Pre-emergence efficacy against AMARE: 90%
[5]
  Pre-emergence efficacy against STEME in %: 100%
[12]
  Pre-emergence efficacy against DIGSA: 90%
[6]
  Pre-emergence efficacy against ABUTH: 100%

## Clc1cnc(Cc2ccccc2Sc2ccc(Cl)cc2Cl)nc1 [Example 1-137]
[8]
  Post-emergence efficacy at 1280 g/ha against ABUTH in %: 90%
[1]
  Post-emergence efficacy against VERPE: 90%
[2]
  Pre-emergence efficacy against AMARE: 100%
[3]
  Post-emergence efficacy at 1280 g/ha against AMARE in %: 100%
[4]
  Pre-emergence efficacy against POAAN: 90%
[9]
  Post-emergence efficacy against POAAN: 90%
[5]
  Pre-emergence efficacy against STEME in %: 100%
[13]
  Pre-emergence efficacy against SETVI in %: 100%
[10]
  Post-emergence efficacy against KCHSC: 90%
[7]
  Post-emergence efficacy against STEME: 90%

## N#CC(c1ncc(F)cn1)c1ccccc1-c1ccc(F)c(F)c1 (stereo not shown) [Example 1-79]
[4]
  Pre-emergence efficacy against POAAN: 90%

## N#Cc1cccc(C(C#N)c2ncc(Cl)cn2)c1-n1cc(C(F)(F)F)cn1 (stereo not shown) [Example 1-71]
[1]
  Post-emergence efficacy against VERPE: 90%
[2]
  Pre-emergence efficacy against AMARE: 100%
[3]
  Post-emergence efficacy at 1280 g/ha against AMARE in %: 100%
[5]
  Pre-emergence efficacy against STEME in %: 90%
[10]
  Post-emergence efficacy against KCHSC: 100%
[7]
  Post-emergence efficacy against STEME: 90%

## FC(F)(F)CCCc1ccccc1Cc1ccc(Cl)cn1 [Example 1-94]
[1]
  Post-emergence efficacy against VERPE: 100%
[3]
  Post-emergence efficacy at 1280 g/ha against AMARE in %: 90%
[9]
  Post-emergence efficacy against POAAN: 90%

## N#CC(c1ncc(Cl)cn1)c1cccc(Br)c1Oc1ccc(F)cc1 (racemic) [Example 1-36]
[1]
  Post-emergence efficacy against VERPE: 90%

## N#CC(c1ncc(Cl)cn1)c1cccc(F)c1Oc1ccc(F)cc1 (stereo not shown) [Example 1-34, (5-Chloropyrimidin-2-yl)[3-fluoro-2-(4-fluorophenoxy)phenyl]acetonitrile]
[1]
  Post-emergence efficacy against VERPE: 100%
[2]
  Pre-emergence efficacy against AMARE: 90%
[3]
  Post-emergence efficacy at 1280 g/ha against AMARE in %: 90%
[5]
  Pre-emergence efficacy against STEME in %: 90%
[7]
  Post-emergence efficacy against STEME: 90%

## COc1cccc(C(C#N)c2ncc(Cl)cn2)c1Oc1ccc(F)cc1 (racemic) [Example 1-32]
[1]
  Post-emergence efficacy against VERPE: 90%
[2]
  Pre-emergence efficacy against AMARE: 90%
[3]
  Post-emergence efficacy at 1280 g/ha against AMARE in %: 90%
[7]
  Post-emergence efficacy against STEME: 90%

## N#CC(c1ncc(Cl)cn1)c1ccccc1-n1cc(C(F)(F)F)cn1 (racemic) [Example 1-41]
[8]
  Post-emergence efficacy at 1280 g/ha against ABUTH in %: 90%
[1]
  Post-emergence efficacy against VERPE: 90%
[3]
  Post-emergence efficacy at 1280 g/ha against AMARE in %: 90%
[4]
  Pre-emergence efficacy against POAAN: 90%
[9]
  Post-emergence efficacy against POAAN: 90%

## N#CC(c1ccc(Cl)cn1)c1ccccc1Cc1ccc(F)cc1 (stereo not shown) [Example 1-82]
[1]
  Post-emergence efficacy against VERPE: 90%
[2]
  Pre-emergence efficacy against AMARE: 100%
[3]
  Post-emergence efficacy at 1280 g/ha against AMARE in %: 100%
[4]
  Pre-emergence efficacy against POAAN: 90%
[5]
  Pre-emergence efficacy against STEME in %: 100%
[6]
  Pre-emergence efficacy against ABUTH: 100%
[10]
  Post-emergence efficacy against KCHSC: 90%

## N#CC(c1ncc(Cl)cn1)c1ccccc1CCCC(F)(F)F (stereo not shown) [Example 1-68]
[3]
  Post-emergence efficacy at 1280 g/ha against AMARE in %: 100%

## N#CC(c1ncc(Cl)cn1)c1cccc(C(F)(F)F)c1Oc1ccc(F)cc1 (racemic) [Example 1-39]
[1]
  Post-emergence efficacy against VERPE: 100%
[6]
  Pre-emergence efficacy against ABUTH: 100%
[10]
  Post-emergence efficacy against KCHSC: 90%

## Cc1cccc(C(C#N)c2ncc(Cl)cn2)c1Oc1ccc(F)cc1 (racemic) [Example 1-30]
[1]
  Post-emergence efficacy against VERPE: 90%

## Fc1cnc(Cc2ccccc2SCCC(F)(F)F)nc1 [Example 1-111]
[8]
  Post-emergence efficacy at 1280 g/ha against ABUTH in %: 90%
[1]
  Post-emergence efficacy against VERPE: 100%
[2]
  Pre-emergence efficacy against AMARE: 100%
[3]
  Post-emergence efficacy at 1280 g/ha against AMARE in %: 100%
[9]
  Post-emergence efficacy against POAAN: 100%
[12]
  Pre-emergence efficacy against DIGSA: 90%
[10]
  Post-emergence efficacy against KCHSC: 100%
[7]
  Post-emergence efficacy against STEME: 100%

## N#CC(c1ncc(Cl)cn1)c1ccccc1-c1ccc(F)c(F)c1 (stereo not shown) [Example 1-78]
[3]
  Post-emergence efficacy at 1280 g/ha against AMARE in %: 90%
[4]
  Pre-emergence efficacy against POAAN: 90%

## Fc1cc(Cl)cnc1Oc1ccccc1Cc1ncccn1 [Example 1-77]
[1]
  Post-emergence efficacy against VERPE: 90%
[2]
  Pre-emergence efficacy against AMARE: 100%
[3]
  Post-emergence efficacy at 1280 g/ha against AMARE in %: 90%
[4]
  Pre-emergence efficacy against POAAN: 90%
[9]
  Post-emergence efficacy against POAAN: 90%
[5]
  Pre-emergence efficacy against STEME in %: 90%
[12]
  Pre-emergence efficacy against DIGSA: 90%
[6]
  Pre-emergence efficacy against ABUTH: 90%
[7]
  Post-emergence efficacy against STEME: 90%
